For one experiment, the target named is T1, γ2Y220Qβ2 (Rattus norvegicus, UniProt P18508+P63138, Y258Q).
T1 construct: expressed in transfected cells; host or cells: Xenopus laevis oocytes (cRNA injection, β2:γ2 1:3)
Description: Two-electrode voltage clamp, mutant γ2Y220Qβ2 in Xenopus oocytes. It is filed as cell-based. The settings on record: for DZ potentiation: 1 µM diazepam. As for the experimental part:
(§1) The point mutations β2Y62Lγ2, β2T202Aγ2, β2T202Sγ2, β2Y205Sγ2, β2Y205Qγ2, β2γ2F77Y, β2γ2S217A, β2γ2Y220S and β2γ2Y220Q were prepared using the QuickChange^TM mutagenesis kit (Stratagene, Agilent Technologies, Basel, Switzerland).
(§2) Animal experiments were carried out in strict accordance to the Swiss ethical guidelines, and have been approved by the local committee of the Canton Bern Kantonstierarzt, Kantonaler Veterinärdienst Bern (BE85/15). Surgery of Xenopus laevis to obtain the oocytes was done under anesthesia, and all efforts were made to diminish animal suffering. Oocytes were prepared, injected and defolliculated as described previously[41],[42]. Polyadenylated cRNA coding for the subunits of GABAA receptors were prepared in vitro with the mMESSAGE mMACHINE kit (Ambion, Austin, TX, USA). Oocytes were injected with 50 nl of solution containing cRNA coding for wild type or mutants β2 (1 fMol) or γ2 (3 fMol) subunits and then incubated in modified Barth’s solution (10 mM HEPES, pH 7.5, 88 mM NaCl, 1 mM KCl, 2.4 mM NaHCO3, 0.82 mM MgSO4, 0.34 mM Ca(NO3)2, 0.41 mM CaCl2, 100 units/ml penicillin, 100 µg/ml streptomycin) at 18 °C for 5–7 days before measurements.
(§3) Electrophysiological experiments were performed using an Oocyte Clamp OC-725 (Warner Instrument Corp., Hamden, USA) two-electrode voltage clamp amplifier. Currents were digitized at 5 kHz with MacLab/200 (AD Instruments, Spechbach, Germany).
(§4) The holding potential was −80 mV. The perfusion medium contained 90 mM NaCl, 1 mM KCl, 1 mM MgCl2, 1 mM CaCl2 and 5 mM Na-HEPES (pH 7.4). The perfusion solution (6 ml/min) was applied through a glass capillary with an inner diameter of 1.35 mm, the mouth of which was placed about 0.5 mm from the surface of the oocyte. […] Maximal current amplitudes (Imax) were obtained from the fits of the concentration-response curves. The individual curves were fitted and standardized to Imax and subsequently averaged. […] The duration of washout periods was 4 min in between agonist or agonist/drug applications to prevent receptor desensitization. […]
(Two-electrode voltage clamp holds a large cell at a set potential and records current.)

The next experiment has as its target T2, β2T202Sγ2 (Rattus norvegicus, UniProt P18508+P63138, T226S).
T2 construct: expressed in transfected cells; host or cells: Xenopus laevis oocytes (cRNA injection, β2:γ2 1:3)
Description: Two-electrode voltage clamp, mutant β2T202Sγ2 in Xenopus oocytes. It is filed as cell-based. The conditions noted are these: for DZ potentiation: 1 µM diazepam. The procedure:
as §1, §2, §3, §4

The target of a further experiment is T3, β2Y62Lγ2 (Rattus norvegicus, UniProt P18508+P63138, Y86L).
T3 construct: expressed in transfected cells; host or cells: Xenopus laevis oocytes (cRNA injection, β2:γ2 1:3)
T3 sequence (P63138 25-474 Y86L limits assumed): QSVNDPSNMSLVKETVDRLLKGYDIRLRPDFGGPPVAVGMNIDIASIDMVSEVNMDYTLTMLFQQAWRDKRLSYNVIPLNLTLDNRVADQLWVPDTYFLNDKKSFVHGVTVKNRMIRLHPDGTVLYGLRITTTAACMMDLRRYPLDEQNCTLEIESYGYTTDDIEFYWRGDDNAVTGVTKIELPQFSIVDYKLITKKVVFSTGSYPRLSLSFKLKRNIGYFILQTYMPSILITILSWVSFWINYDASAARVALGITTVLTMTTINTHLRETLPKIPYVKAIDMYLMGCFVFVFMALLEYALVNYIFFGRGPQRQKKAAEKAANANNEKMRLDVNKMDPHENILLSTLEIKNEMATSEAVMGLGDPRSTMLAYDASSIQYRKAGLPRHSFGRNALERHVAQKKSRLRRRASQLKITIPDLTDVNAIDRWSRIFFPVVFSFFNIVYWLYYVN
T3 sequence (P18508 39-466): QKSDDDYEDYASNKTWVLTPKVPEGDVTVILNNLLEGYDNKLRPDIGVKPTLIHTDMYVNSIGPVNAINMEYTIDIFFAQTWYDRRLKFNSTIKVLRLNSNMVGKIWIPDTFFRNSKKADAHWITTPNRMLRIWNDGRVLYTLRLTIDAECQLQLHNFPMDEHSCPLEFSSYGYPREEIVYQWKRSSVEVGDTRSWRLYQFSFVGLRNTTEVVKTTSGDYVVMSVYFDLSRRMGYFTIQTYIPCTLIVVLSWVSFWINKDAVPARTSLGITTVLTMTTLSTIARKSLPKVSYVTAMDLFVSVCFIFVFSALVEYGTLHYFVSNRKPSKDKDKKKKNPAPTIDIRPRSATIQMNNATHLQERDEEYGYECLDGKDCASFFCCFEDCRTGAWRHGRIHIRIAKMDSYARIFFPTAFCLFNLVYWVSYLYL
Description: Two-electrode voltage clamp, mutant β2Y62Lγ2 in Xenopus oocytes. The settings on record: for DZ potentiation: 1 µM diazepam. Format: cell-based. The procedure:
as §1, §2, §3, §4

The next experiment addresses T4, γ2S217Aβ2 (Rattus norvegicus, UniProt P18508+P63138, S255A).
T4 construct: expressed in transfected cells; host or cells: Xenopus laevis oocytes (cRNA injection, β2:γ2 1:3)
In words: Two-electrode voltage clamp, mutant γ2S217Aβ2 in Xenopus oocytes. The settings on record: for DZ potentiation: 1 µM diazepam. Format: cell-based. As for the experimental part: as §1, §2, §3, §4

The target of the next experiment is T5, β2γ2 GABAA receptors (Rattus norvegicus, UniProt P18508+P63138).
T5 construct: expressed in transfected cells; host or cells: Xenopus laevis oocytes (cRNA injection, β2:γ2 1:3)
T5 sequence (P63138 25-474 limits assumed): as the sequence (P63138 25-474 Y86L limits assumed) above, with L62Y counted along it
T5 sequence (P18508 39-466): as the sequence (P18508 39-466) above
Description: Two-electrode voltage clamp, wild type β2γ2 receptors expressed in Xenopus oocytes. It is filed as cell-based. The settings on record: for GABA current amplitude: 10 mM GABA; for DZ potentiation: 1 µM diazepam, GABA eliciting 1–5% of maximal current. The procedure:
as §2, §3, §4

The target of the next experiment is T6, γ2 (Rattus norvegicus, UniProt P18508).
T6 construct: expressed in transfected cells; host or cells: Xenopus laevis oocytes (cRNA injection)
T6 sequence (P18508 39-466): as above
Description: Two-electrode voltage clamp, γ2 subunit expressed alone in Xenopus oocytes. Format: cell-based. As for the experimental part: as §2, §3
(§5) The holding potential was −80 mV. The perfusion medium contained 90 mM NaCl, 1 mM KCl, 1 mM MgCl2, 1 mM CaCl2 and 5 mM Na-HEPES (pH 7.4). […]

Another experiment has as its target T7, β2 (Rattus norvegicus, UniProt P63138).
T7 construct: expressed in transfected cells; host or cells: Xenopus laevis oocytes (cRNA injection)
Description: Two-electrode voltage clamp, β2 subunit expressed alone in Xenopus oocytes. Format: cell-based. The procedure: as §2, §3, §5

Another experiment concerns the target T8, γ2F77Yβ2 (Rattus norvegicus, UniProt P18508+P63138, F115Y).
T8 construct: expressed in transfected cells; host or cells: Xenopus laevis oocytes (cRNA injection, β2:γ2 1:3)
Description: Two-electrode voltage clamp, mutant γ2F77Yβ2 in Xenopus oocytes. Format: cell-based. The settings on record: for DZ potentiation: 1 µM diazepam. As for the experimental part: as §1, §2, §3, §4

Another experiment has as its system α1T206C in α1β2γ2. The conditions noted are these: ref [12],[27]; cited from earlier work.
Another experiment concerns γ2F77Y in α1β2γ2. The settings on record: ref [29], cited from earlier work.
Experiment [1] concerns mice carrying a point mutation in all those four alpha subunits. More on the design: method as in Ralvenius et al.[40]. The conditions noted are these: point-mutated mice, 10 mg/kg diazepam, ref Ralvenius et al.[40], cited from earlier work.
For the next experiment, the system named is α1β2γ2. The conditions noted are these: read-out: EC50 of diazepam; cited from earlier work.
The subject of the next experiment is α1T206V in α1β2γ2. The conditions noted are these: ref [28]; cited from earlier work.
The next experiment deals with α1T206A in α1β2γ2. The settings on record: ref [26]; cited from earlier work.
For the next experiment, the system named is α1β2Y62Lγ2 receptors. Description: Effect of mutation β2Y62L in α1β2γ2 receptors. The settings on record: 50 µM etomidate vs GABA. It is filed as cell-based.
A further experiment has as its target T9, β2Y205Sγ2 (Rattus norvegicus, UniProt P18508+P63138, Y229S).
T9 construct: expressed in transfected cells; host or cells: Xenopus laevis oocytes (cRNA injection, β2:γ2 1:3)
In words: Two-electrode voltage clamp, mutant β2Y205Sγ2 in Xenopus oocytes. Format: cell-based. The settings on record: 50 µM etomidate. The procedure:
as §1, §2
(§6) Electrophysiological experiments were performed using an Oocyte Clamp OC-725 (Warner Instrument Corp., Hamden, USA) two-electrode voltage clamp amplifier. […]

The next experiment deals with T10, γ2Y220Sβ2 (Rattus norvegicus, UniProt P18508+P63138, Y258S).
T10 construct: expressed in transfected cells; host or cells: Xenopus laevis oocytes (cRNA injection, β2:γ2 1:3)
T10 sequence (P63138 25-474 limits assumed): as the sequence (P63138 25-474 Y86L limits assumed) above, with L62Y counted along it
T10 sequence (P18508 39-466 Y258S): as the sequence (P18508 39-466) above, with Y220S counted along it
In words: Two-electrode voltage clamp, mutant γ2Y220Sβ2 in Xenopus oocytes. The settings on record: 50 µM etomidate. It is filed as cell-based. The procedure:
as §1, §2, §6

Another experiment concerns the target T11, β2T202Aγ2 (Rattus norvegicus, UniProt P18508+P63138, T226A).
T11 construct: expressed in transfected cells; host or cells: Xenopus laevis oocytes (cRNA injection, β2:γ2 1:3)
In words: Two-electrode voltage clamp, mutant β2T202Aγ2 in Xenopus oocytes. The conditions noted are these: 50 µM etomidate. Format: cell-based. The procedure:
as §1, §2, §6

Another experiment addresses T12, β2Y205Qγ2 (Rattus norvegicus, UniProt P18508+P63138, Y229Q).
T12 construct: expressed in transfected cells; host or cells: Xenopus laevis oocytes (cRNA injection, β2:γ2 1:3)
In words: Two-electrode voltage clamp, mutant β2Y205Qγ2 in Xenopus oocytes. Format: cell-based. The conditions noted are these: 50 µM etomidate. The procedure:
as §1, §2, §6

What is called EC50 is the concentration at which the effect is half-maximal.

Like-named read-outs stand apart in the source and are kept apart here.

T2 sequence (P63138 25-474 T226S limits assumed): as the sequence (P63138 25-474 Y86L limits assumed) above, with L62Y, T202S counted along it
T2 sequence (P18508 39-466): as the sequence (P18508 39-466) above
T1 sequence (P63138 25-474 limits assumed): as the sequence (P63138 25-474 Y86L limits assumed) above, with L62Y counted along it
T1 sequence (P18508 39-466 Y258Q): as the sequence (P18508 39-466) above, with Y220Q counted along it
T8 sequence (P63138 25-474 limits assumed): as the sequence (P63138 25-474 Y86L limits assumed) above, with L62Y counted along it
T8 sequence (P18508 39-466 F115Y): as the sequence (P18508 39-466) above, with F77Y counted along it
T4 sequence (P63138 25-474 limits assumed): as the sequence (P63138 25-474 Y86L limits assumed) above, with L62Y counted along it
T4 sequence (P18508 39-466 S255A): as the sequence (P18508 39-466) above, with S217A counted along it
T7 sequence (P63138 25-474 limits assumed): as the sequence (P63138 25-474 Y86L limits assumed) above, with L62Y counted along it
T11 sequence (P63138 25-474 T226A): as the sequence (P63138 25-474 Y86L limits assumed) above, with L62Y, T202A counted along it
T11 sequence (P18508 39-466): as the sequence (P18508 39-466) above
T9 sequence (P63138 25-474 Y229S): as the sequence (P63138 25-474 Y86L limits assumed) above, with L62Y, Y205S counted along it
T9 sequence (P18508 39-466): as the sequence (P18508 39-466) above
T12 sequence (P63138 25-474 Y229Q): as the sequence (P63138 25-474 Y86L limits assumed) above, with L62Y, Y205Q counted along it
T12 sequence (P18508 39-466): as the sequence (P18508 39-466) above

For the molecule `NCCCC(=O)O` [GABA, γ-Aminobutyric acid], the “Hill coefficient of GABA” value on γ2Y220Qβ2 (β2γ2Y220Q) amounted to 0.7 ± 0.1; on β2T202Sγ2 (β2T202Sγ2), 0.8 ± 0.1; on β2Y62Lγ2 (β2Y62Lγ2), 1.0 ± 0.1; at γ2S217Aβ2 (β2γ2S217A), 0.8 ± 0.1; at β2γ2 GABAA receptors (β2γ2), 1.0 ± 0.1; at γ2F77Yβ2, 0.9 ± 0.1. Moreover, the “Decrease in sensitivity to GABA” value on γ2Y220Qβ2 (β2γ2Y220Q vs wild-type β2γ2) was 5 fold; on γ2S217Aβ2 (β2γ2S217A vs wild-type β2γ2), 2 fold. In addition, the GABA current amplitude at γ2Y220Qβ2 (γ2Y220Qβ2, 10 mM GABA) is reported as 127 ± 40 (6) nA; at β2T202Sγ2 (β2T202Sγ2, 10 mM GABA), 203 ± 18 (5) nA; on β2Y62Lγ2 (β2Y62Lγ2, 10 mM GABA), 53 ± 8 (17) nA; on γ2S217Aβ2 (γ2S217Aβ2, 10 mM GABA), 100 ± 25 (13) nA; at β2γ2 GABAA receptors (β2γ2, cRNA ratio 1:3, −80 mV), 131 ± 19 (13) nA; on β2γ2 GABAA receptors (β2γ2 from 1:1 and 2:1 cRNA ratios), “less than 100 nA”. Also, the GABA current amplitude is listed as −4 ± 1 (5) nA on γ2 (10 mM GABA), −4 ± 1 (4) nA on β2 (10 mM GABA) and 148 ± 23 (11) nA at γ2F77Yβ2 (10 mM GABA). The “Decrease in GABA sensitivity” value on β2T202Sγ2 (β2T202Sγ2 vs wild-type β2γ2) stood at 42 fold. Besides, the “Decrease in the sensitivity for GABA” value at β2Y62Lγ2 (β2Y62Lγ2 vs wild-type β2γ2) is 3 fold. The “Smaller GABA current amplitude compared to wild-type” value at β2Y62Lγ2 (β2Y62Lγ2 vs wild-type β2γ2) was determined as 2 fold.

As for `CN1C(=O)CN=C(c2ccccc2)c2cc(Cl)ccc21` [diazepam], the DZ potentiation entry was “not significantly affected” at γ2Y220Qβ2 (γ2Y220Qβ2); 127 ± 11 (6) % on γ2Y220Qβ2 (γ2Y220Qβ2, listed as DZ); “not significantly affected” at β2T202Sγ2 (β2T202Sγ2); 100 ± 7 (4) % on β2T202Sγ2 (β2T202Sγ2, listed as DZ); “not significantly affected” at β2Y62Lγ2 (β2Y62Lγ2); 121 ± 12 (5) % on β2Y62Lγ2 (β2Y62Lγ2, listed as DZ). In addition, the DZ potentiation result on γ2S217Aβ2 (γ2S217Aβ2) is “not significantly affected”; at γ2S217Aβ2 (γ2S217Aβ2, listed as DZ), 185 ± 23 (4) %; at β2γ2 GABAA receptors (β2γ2), 216 ± 30%; at β2γ2 GABAA receptors (β2γ2, listed as DZ), 216 ± 30 (15) %; on γ2F77Yβ2 it was “nearly lost”; on γ2F77Yβ2 (listed as DZ), 5 ± 2 (5) %. Further, the “Effect on DZ affinity” value in the experiment with α1T206C in α1β2γ2 was “(no effect on DZ affinity)”. In addition, the “Decrease in DZ affinity” value with γ2F77Y in α1β2γ2 (listed as DZ) was 230-fold decrease in DZ affinity; in the experiment with γ2F77Y in α1β2γ2, “abolishes the binding site”; in the experiment with α1T206V in α1β2γ2 it was “(7-fold decrease in DZ affinity)”; with α1T206A in α1β2γ2, “(3-fold decrease in DZ affinity)”. For the same molecule, the Locomotor activity entry in experiment [1] (quite prominent at higher doses) is given as “trend towards reduced locomotor activity”. In addition, the “Diazepam-induced muscle relaxation and motor impairment” value in experiment [1] is “completely protected”. Besides, the EC50 in the experiment on α1β2γ2 is 92 ± 6 nM. The “Hill coefficient of diazepam” value on β2γ2 GABAA receptors (β2γ2) was determined as 0.6 ± 0.1.

For the molecule `CCOC(=O)c1cncn1[C@H](C)c1ccccc1` [etomidate], the Etomidate current amplitude on γ2Y220Qβ2 (γ2Y220Qβ2, 50 µM etomidate) is on record as 777 ± 113 (5) nA; at β2T202Sγ2 (β2T202Sγ2, 50 µM etomidate) it was 380 ± 77 (5) nA; on β2Y62Lγ2 (β2Y62Lγ2, 50 µM etomidate), 13 ± 3 (11) nA; at β2Y205Sγ2, 0 ± 0 (5) nA; on γ2Y220Sβ2, 76 ± 17 (5) nA; at β2T202Aγ2, 8 ± 2 (5) nA. Also, the Etomidate current amplitude on γ2S217Aβ2 (γ2S217Aβ2, 50 µM etomidate) was 141 ± 31 (5) nA; on β2Y205Qγ2, 6 ± 2 (5) nA; on β2γ2 GABAA receptors (β2γ2, 50 µM etomidate, −80 mV), 946 ± 8 (4) nA; on γ2 (50 µM etomidate) it was 0 ± 0 (5) nA; at β2 (50 µM etomidate), 4 ± 1 (4) nA; at γ2F77Yβ2 (50 µM etomidate), 193 ± 25 (4) nA. Besides, the “Etomidate current relative to GABA current (fold smaller)” value at β2Y62Lγ2 (β2Y62Lγ2, 50 µM etomidate vs saturating GABA) was “about 4 fold”; in the experiment with α1β2Y62Lγ2 receptors, “about 30 fold”. In addition, the “Etomidate current relative to GABA current (fold larger)” value on β2γ2 GABAA receptors (wild type β2γ2, 50 µM etomidate vs saturating GABA) is recorded as “about 7 fold”.

The values above are taken from article PMC5686171 (Scientific Reports, 2017).
